{"source": "patent US12162855B2", "about": "“Tetrahydroquinolino derivatives for the treatment of metastatic and chemoresistant cancers” (THE TRUSTEES OF PRINCETON UNIVERSITY, priority 2018, dated 2024)", "key": {"SUM159-M1a cells": {"test_system": "SUM159-M1a cells", "test": "Bone metastasis xenograft, SUM159-M1a cells by intracardiac injection, BLI", "format": "in vivo, mouse", "conditions": "MBE1 IP in conjunction with paclitaxel, intracardiac injection model", "description": "All xenograft experiments were conducted on 8-week old female mice (athymic Nu/Nu, or NOD/SCID Gamma). Xenograft experiments were conducted using 125,000 SUM159-M1a cells in 100 μL PBS for tail vein or intracardiac injection. Mice were randomized following injection. Bioluminescent imaging (BLI) was conducted using the IVIS 200 system and retroorbital luciferin injection. For drug treatment, MBE1 (prepared as above) was given to mice via IP injection in conjunction with paclitaxel (5 mg/mL in 10% ethanol, 10% Kolliphor EL, 80% PBS) at the time intervals and dosages indicated in FIG. 5A (tail vein injection) and FIG. 6A (intracardiac injection).\nFIG. 5B is a line graph of lung metastasis, as measured using bioluminescence imaging (BLI), versus time (days), and compares lung metastasis in the presence and absence of MBE1 in the mice from the experiment outlined in FIG. 5A. FIG. 6B is a line graph of bone metastasis, as measured using BLI, versus time (days), and compares bone metastasis in the presence and absence of MBE1 in the mice from the experiment outlined in FIG. 6A."}, "Aldh3a1": {"target": "T1, Aldh3a1 (Homo sapiens, UniProt P30838)", "T1 construct": "expressed in transfected cells; host or cells: MCF7, lentiviral pLex vector", "T1 sequence (P30838 1-453)": "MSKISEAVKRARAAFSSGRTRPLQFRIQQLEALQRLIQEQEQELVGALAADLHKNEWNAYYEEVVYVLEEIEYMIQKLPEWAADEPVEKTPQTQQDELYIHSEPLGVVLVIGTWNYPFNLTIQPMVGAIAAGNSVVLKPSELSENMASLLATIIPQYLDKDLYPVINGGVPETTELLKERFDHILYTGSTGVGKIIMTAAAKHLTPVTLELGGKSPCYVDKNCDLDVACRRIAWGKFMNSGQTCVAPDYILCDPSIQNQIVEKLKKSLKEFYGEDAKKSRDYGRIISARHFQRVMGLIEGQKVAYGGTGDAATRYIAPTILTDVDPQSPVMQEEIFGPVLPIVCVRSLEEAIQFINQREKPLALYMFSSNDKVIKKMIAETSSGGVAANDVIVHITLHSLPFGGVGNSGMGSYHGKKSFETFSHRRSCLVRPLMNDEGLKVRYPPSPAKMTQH", "test": "ALDEFLUOR assay in MCF7 cells transduced with human Aldh3a1", "format": "cell-based", "conditions": "concentrations below 10 μM", "description": "The coding sequences of Aldh1a1, Aldh1a2, Aldh1a3 and Aldh3a1 were cloned from cDNA made from pooled human reference RNA samples. Cloned sequences flanked by Age1 and Xho1 restriction sites were inserted into the pLex lentiviral plasmid. Clones were sequenced and compared against NCBI expressed sequence tags (ESTs) for accuracy. […]. Viruses were collected and filtered at 0.45 μm, then cells were transduced using polybrene (8 μg/mL) for 12 hours, followed by culture with 1 μg/mL puromycin for the duration of experiments. All viral transduction and selection was performed on a cell population-wide basis.\n(§1) Cells were counted, centrifuged and resuspended at 1,000,000 cells/mL in ALDEFLUOR™ buffer (Stemcell Technologies). ALDEFLUOR™ substrate (Stemcell Technologies, 1:200) and test compound or 1 mM DEAB were added to cell suspension and incubated at 37° C. for 45 minutes with vortexing every 15 minutes. Cells were centrifuged and resuspended in ALDEFLUOR™ buffer with DAPI at 5 μg/mL. Samples were analyzed with the BD LSR2 flow cytometry platform. Gating was performed using DEAB as a negative control."}, "[1]": {"test_system": "Sum-159-M1a-Aldh1a3 cells", "test": "Lung metastasis xenograft, Sum-159-M1a-Aldh1a3 cells by tail-vein injection", "format": "in vivo, mouse", "conditions": "25 mg/kg daily with paclitaxel 12.5 mg/kg every other day, 12 days", "description": "In another xenograft experiment, mice were injected with Sum-159-M1a-Aldh1a3 cells via tail-vein injection, and were randomized following injection. Mice were treated with MBE1.5 (25 mg/kg daily) or vehicle, and paclitaxel (12.5 mg/kg every other day) for twelve days. Lung metastasis progression was tracked by intravital bioluminescence."}, "Aldh1a2": {"target": "T2, Aldh1a2 (Homo sapiens, UniProt O94788)", "T2 construct": "expressed in transfected cells; host or cells: 293T, transient transfection", "T2 sequence (O94788 1-518)": "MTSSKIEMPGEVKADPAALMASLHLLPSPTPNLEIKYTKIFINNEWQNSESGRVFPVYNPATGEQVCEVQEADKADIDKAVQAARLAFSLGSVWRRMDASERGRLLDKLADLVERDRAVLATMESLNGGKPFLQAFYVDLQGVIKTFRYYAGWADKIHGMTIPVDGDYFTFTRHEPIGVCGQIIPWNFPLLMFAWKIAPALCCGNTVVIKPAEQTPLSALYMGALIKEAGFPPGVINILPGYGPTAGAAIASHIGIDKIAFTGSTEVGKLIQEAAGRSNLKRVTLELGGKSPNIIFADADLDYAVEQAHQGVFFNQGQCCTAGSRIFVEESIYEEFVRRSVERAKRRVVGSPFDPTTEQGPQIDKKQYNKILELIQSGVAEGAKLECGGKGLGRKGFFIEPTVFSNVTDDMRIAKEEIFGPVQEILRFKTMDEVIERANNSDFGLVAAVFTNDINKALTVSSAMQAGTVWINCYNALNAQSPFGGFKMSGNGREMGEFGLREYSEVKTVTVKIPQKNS", "test": "ALDEFLUOR assay in 293T cells transiently transfected with human Aldh1a2", "format": "cell-based", "conditions": "concentrations below 10 μM", "description": "The coding sequences of Aldh1a1, Aldh1a2, Aldh1a3 and Aldh3a1 were cloned from cDNA made from pooled human reference RNA samples. Cloned sequences flanked by Age1 and Xho1 restriction sites were inserted into the pLex lentiviral plasmid. Clones were sequenced and compared against NCBI expressed sequence tags (ESTs) for accuracy. Viral production of each enzyme was performed by transfection into the 293T packaging cell line using PEI along with PsPax2 and VSVG packaging vectors. Viruses were collected and filtered at 0.45 μm, then cells were transduced using polybrene (8 μg/mL) for 12 hours, followed by culture with 1 μg/mL puromycin for the duration of experiments. All viral transduction and selection was performed on a cell population-wide basis.\nas §1"}, "MDA-MB-468 cells": {"test_system": "MDA-MB-468 cells", "test": "Primary tumor xenograft, MDA-MB-468 cells in mammary fat pad", "format": "in vivo", "conditions": "12 days", "description": "In yet another xenograft experiment, mice were injected with MDA-MB-468 cells via mammary fat pad, and were randomized following injection. Mice were treated with MBE1.5 (25 mg/kg daily, n=6) or vehicle (n=12), and paclitaxel (12.5 mg/kg every other day) for 12 days. Primary tumor measurements were taken by caliper between each treatment group."}}}
{"compound": "CCc1cnccc1C(=O)Nc1cc2c(cc1F)NC(=O)CC2", "note": "[MBE1, 3-ethyl-N-(7-fluoro-2-oxo-1,2,3,4-tetrahydroquinolin-6-yl)isonicotinamide]", "values": [{"measurement": "bone metastasis by BLI (FIG. 6B)", "setting": "SUM159-M1a cells", "result": "effective therapeutic to treat established metastatic disease"}, {"measurement": "inhibition of Aldh3a1 activity (FIG. 2A)", "setting": "Aldh3a1", "result": "does not inhibit"}]}
{"compound": "CCc1ccccc1C(=O)Nc1cc2c(cc1F)NC(=O)CC2", "note": "[MBE1.5, 2-ethyl-N-(7-fluoro-2-oxo-1,2,3,4-tetrahydroquinolin-6-yl)benzamide]", "values": [{"measurement": "mouse survival, Kaplan-Meier (FIG. 16B)", "setting": "[1]", "result": "extended survival in mice with late-stage established breast cancer lung metastasis"}, {"measurement": "inhibition of Aldh1a2 activity (FIG. 2B)", "setting": "Aldh1a2", "result": "does not inhibit"}, {"measurement": "complete tumor elimination", "setting": "MDA-MB-468 cells; 25 mg/kg daily (n=6) with paclitaxel 12.5 mg/kg every other day", "result": "tumors of two mice in the MBE1.5 treatment group were completely eliminated"}, {"measurement": "gross toxicity, body mass (FIG. 15A)", "setting": "MDA-MB-468 cells; 25 mg/kg daily with paclitaxel 12.5 mg/kg every other day", "result": "no gross toxicity"}, {"measurement": "tumor volume (FIG. 15B)", "setting": "MDA-MB-468 cells; 25 mg/kg daily with paclitaxel 12.5 mg/kg every other day, MDA-MB-468 primary tumors", "result": "caused regression of primary breast tumors"}]}
